Laboratory results published in article PMC12080252, “Daphnia magna as an Alternative Model for (Simultaneous) Bioaccumulation and Chronic Toxicity Assessment—Controlled Exposure Study Indicates High Hazard of Heterocyclic PAHs” (Environmental Science & Technology, 2025).
Several values for one entry are separate records, joined by “and”; a condition that tells them apart may be missing. Equal entries are not always repeated.

Experiments:
[1] = Chronic reproduction toxicity test (OECD 211) with passive dosing; format: in vivo, Daphnia magna; details: Daphnia magna, in vivo, other: waterborne exposure by passive dosing from PDMS disks, 21-day test, read-out: % offspring mortality of total offspring
Description: (§1) Chronic toxicity tests with D. magna were performed according to the OECD guideline 211^2 using the passive dosing method. Two days before the tests, the exposure solution was predosed by shaking 10 PDMS disks loaded with the test substance in 1 L of medium for 48 h. Each test vessel (250 mL) was first flushed with the dosed solution to equilibrate the vessel walls, then filled with 100 mL of test solution, one PDMS disk, and one juvenile D. magna (<24 h old). The tests were conducted in loosely closed bottles to allow for adequate gas exchange and limit evaporation. The exposure medium was changed three times per week, and the animals were fed D. subspicatus daily (0.2 mg C/Daphnia/day). The number of offspring per adult and behavioral or physiological effects (e.g., size, movement, unhatched eggs) were recorded daily (except weekends). Dissolved oxygen, pH and temperature were also measured each week.
(§2) Tests were performed under static conditions (20 °C, 16:8 h light/dark cycle, 1 klux). Each compound was tested in 10 replicates for controls and limit tests (a single high concentration exposure to screen for significant toxic effects) and with 6 or 10 replicates for concentration–response tests. Reuse of silicone disks was included in some experiments (Table S3). Reproductive inhibition was assessed by counting offspring over 21 days. The number of offspring per mother in treatment groups was compared to controls, and the percent inhibition per replicate was used to generate concentration–response curves. A minimum of five concentrations per compound were tested to determine EC10, EC20, and EC50 values. For each test, three sets of polymers were rotated between loading, dosing, and exposure stages (Figure S2). Initial (before animal and food addition) and final (after 2–3 days of exposure, just before the medium change) water concentrations (CW) were monitored, with the latter collected after centrifugation to remove biomass (e.g., algae, carapaces, or feces).
(§3) All data are presented as average ± standard deviation. Student’s t test was used to analyze significance (p-value >0.05 considered insignificant). Concentration–response curve parameters (effective concentrations and confidence limits) and plots were generated using GraphPad Prism software (V6.01, GraphPad Software, La Jolla, CA, USA). The exposure concentrations were log10 transformed before fitting. Then a four parameters logistic model with variable slope was used to obtain EC10, EC20 and EC50 (see section S5 in SI file for details). Effective chemical activities (EA50) for chronic toxicity were calculated as follows: [drawing 1] 1 […]
(§4) S5. Concentration-response curve (CRC) fitting procedure
(§5) GraphPad Prism version 9.5.1 was used to fit CRC and obtain EC10, EC20, EC50 values and their confidence intervals. The exposure concentrations were log10 transformed before fitting. Then a four parameters logistic model with variable slope was used that describes the response as a function of following four parameters: minimum response (the Bottom), maximum response (the Top), the concentration required to cause a response half-way between the minimum and maximum (the EC50) and the slope of the curve […]
(§6) concentration. The Top was constrained to 100, the Bottom was constrained to 0, the HillSlope was not […]
(§7) !"# %& = !"# %&* − , × !"# 3 * 4
(§8) (, + ,((!"# %&'(<=)×-.!!/!"01)
(§9) Figure S7 Concentration-response curves of four NSO-PAHs based on reproductive inhibition during 21-day chronic toxicity tests with D. magna.
(§10) (1 picture or pasted object on this page, not shown here)

Daphnia magna = assay: as above; format: in vivo; details: for Total #dead offspring per mother (per vessel) / Total #offspring per mother (per vessel) / % inhibition (per vessel): individual vessels; for EC10: 21-day reproduction inhibition; for wet weight of parent daphnids, change relative to control: end of 21-d exposure; for % inhibition, avr. / % inhibition (per vessel): reproduction vs controls
Description: as §1, §2, §3, §4, §5, §6, §7, §8, §9, §10

Q: Which mortality at 21 days, 0.07 µg/L ([1]; 0.07 µg/L (Fig. S8)) does the source give for `c1ccc2c(c1)ccc1sc3ccccc3c12` [BNT, benzo[b]naphtho[1,2-d]thiophene] here?
A: 1.8%

Q: And the mortality at 21 days, 0.25 µg/L ([1]; 0.25 µg/L (Fig. S8))?
A: 11.1%

Q: And the mortality at 21 days, 0.38 µg/L ([1]; 0.38 µg/L (Fig. S8))?
A: 11.7%

Q: What about the mortality at 21 days, 0.81 µg/L ([1]; 0.81 µg/L (Fig. S8)) of the same compound?
A: 14.8%

Q: What about the mortality at 21 days, 1.94 µg/L ([1]; 1.94 µg/L (Fig. S8)) of the same compound?
A: 14.2%

Q: What about the mortality at 21 days, 4.63 µg/L ([1]; 4.63 µg/L (Fig. S8)) of the same compound?
A: 20.8%

Q: What about the mortality at 21 days, 12 µg/L ([1]; 12.00 µg/L (Fig. S8)) of the same compound?
A: 28%

Q: And the “#average live offspring” value (Daphnia magna; 0.07 µg/L, 21 days)?
A: 67

Q: What about the “%offspring mortality” value (Daphnia magna; 0.07 µg/L, 21 days) of the same compound?
A: 1.76%

Q: And the “#total live offspring” value (Daphnia magna; 0.07 µg/L, 21 days, all vessels without outlier)?
A: 334

Q: What about the “Total #dead offspring per mother (per vessel)” value (Daphnia magna; 0.07 µg/L, 21 days) of the same compound?
A: 0 and 2

Q: And the “#average live offspring” value (Daphnia magna; 0.25 µg/L, 21 days)?
A: 67

Q: And the “%offspring mortality” value (Daphnia magna; 0.25 µg/L, 21 days)?
A: 11.09%

Q: And the “#total live offspring” value (Daphnia magna; 0.25 µg/L, 21 days, all vessels)?
A: 401

Q: What about the “Total #dead offspring per mother (per vessel)” value (Daphnia magna; 0.25 µg/L, 21 days) of the same compound?
A: 8 and 14 and 9 and 6 and 5

Q: What about the “#average live offspring” value (Daphnia magna; 0.38 µg/L, 21 days) of the same compound?
A: 62

Q: And the “%offspring mortality” value (Daphnia magna; 0.38 µg/L, 21 days)?
A: 11.71%

Q: And the “#total live offspring” value (Daphnia magna; 0.38 µg/L, 21 days, all vessels without vessel 2 (X))?
A: 309

Q: What about the “Total #dead offspring per mother (per vessel)” value (Daphnia magna; 0.38 µg/L, 21 days) of the same compound?
A: 9 and 16 and 10 and 5 and 1

Q: And the “#average live offspring” value (Daphnia magna; 0.81 µg/L, 21 days)?
A: 52

Q: What about the “%offspring mortality” value (Daphnia magna; 0.81 µg/L, 21 days) of the same compound?
A: 14.75%

Q: And the “#total live offspring” value (Daphnia magna; 0.81 µg/L, 21 days, all vessels)?
A: 312

Q: What about the “Total #dead offspring per mother (per vessel)” value (Daphnia magna; 0.81 µg/L, 21 days) of the same compound?
A: 10 and 9 and 3 and 24 and 5

Q: What about the EC10 (Daphnia magna; 97.5-2.5% confidence interval in brackets) of the same compound?
A: 0.33 (0.12-0.73) μg L^-1

Q: What about the EC10 (Daphnia magna; confidence interval in brackets) of the same compound?
A: 1.40 (0.49-3.10) nmol L^-1

Q: And the “growth of parent D. magna (wet weight)” value (Daphnia magna; 21-day test, p-value <0.05)?
A: significantly inhibited D. magna growth

Q: And the “LOEC (lowest observed effect concentration, reproduction inhibition)” value (Daphnia magna; 21 days, p-value <0.05 vs controls)?
A: 0.8 μg L^–1

Q: What about the “Total #offspring per mother (per vessel)” value (Daphnia magna; BNT avr. medium concentration 0.25 µg/L (methanol dosing 0.063 g/L), 21 days) of the same compound?
A: 81 and 73 and 58 and 64 and 61

Q: And the “Total #offspring per mother (per vessel)” value (Daphnia magna; BNT avr. medium concentration 0.38 µg/L (methanol dosing 0.125 g/L), 21 days)?
A: 66 and 55 and 82 and 54 and 52

Q: What about the “Total #offspring per mother (per vessel)” value (Daphnia magna; BNT avr. medium concentration 0.81 µg/L (methanol dosing 0.25 g/L), 21 days) of the same compound?
A: 40 and 59 and 60 and 34 and 57 and 62

Q: What about the “EA50 (effective chemical activity)” value (Daphnia magna; EC50/subcooled liquid solubility, eq 1) of the same compound?
A: 0.026 unitless

Q: And the “Classification according to REACH Annex XIII” value (Daphnia magna; chronic EC10 < 10 μg L^–1)?
A: toxic to aquatic life

Q: What about the “CTLBB (critical target lipid body burden)” value (Daphnia magna; derived from chronic EC10 using eq 3) of the same compound?
A: 0.8 μmol g^-1 octanol

Q: What about the “wet weight of parent daphnids, change relative to control” value (“wet weight … change relative to control” for short) (Daphnia magna; 0.07 µg/L (Fig. S9)) of the same compound?
A: -11%

Q: And the “wet weight … change relative to control” value (Daphnia magna; 0.25 µg/L (Fig. S9))?
A: -19%

Q: What about the “wet weight … change relative to control” value (Daphnia magna; 0.38 µg/L (Fig. S9)) of the same compound?
A: -17%

Q: What about the “wet weight … change relative to control” value (Daphnia magna; 0.81 µg/L (Fig. S9)) of the same compound?
A: -3%

Q: And the “wet weight … change relative to control” value (Daphnia magna; 1.94 µg/L (Fig. S9))?
A: +13%

Q: And the “wet weight … change relative to control” value (Daphnia magna; 4.63 µg/L (Fig. S9))?
A: -24%

Q: And the “% inhibition, avr.” value (Daphnia magna; 0.07 µg/L, 21 days)?
A: 1.3%

Q: And the “% inhibition (per vessel)” value (Daphnia magna; 0.07 µg/L, 21 days)?
A: -3.4% and -4.9% and -1.9% and 15.8% and 1.0%

Q: And the “% inhibition, avr.” value (Daphnia magna; 0.25 µg/L, 21 days)?
A: 1.3%

Q: What about the “% inhibition (per vessel)” value (Daphnia magna; 0.25 µg/L, 21 days) of the same compound?
A: -19.6% and -7.8% and 14.3% and 5.5% and 9.9%

Q: And the “% inhibition, avr.” value (Daphnia magna; 0.38 µg/L, 21 days)?
A: 8.7%

Q: What about the “% inhibition (per vessel)” value (Daphnia magna; 0.38 µg/L, 21 days) of the same compound?
A: 2.5% and 18.8% and -21.1% and 20.2% and 23.2%

Q: What about the “% inhibition, avr.” value (Daphnia magna; 0.81 µg/L, 21 days) of the same compound?
A: 23.2%

Q: And the “% inhibition (per vessel)” value (Daphnia magna; 0.81 µg/L, 21 days)?
A: 40.9% and 12.9% and 11.4% and 49.8% and 15.8% and 8.4%
